Each block holds one compound with its values, some of them ahead of it.
What was measured:
[1] = Evaluation of conversion rate to active form in buffer solution (Experimental Example 1); type: physicochemical; settings: for Conversion to Alvocidib at pH 7.4: pH 7.4, 37° C., up to 3 hours
Procedure, shortened: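 25 umol/L cpd, 37° C; 50 mM citrate pH 5.0/5.5, 50 mM phosphate pH 6.0/6.5/7.0/7.4. HPLC at 0–3 h: residual rate and Alvocidib production rate.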

[2] = Evaluation of conversion rate to active form in BALB/c mouse plasma (Experimental Example 3); type: in vitro ADME; settings: BALB/c, mouse, 0.2 μmol/L
Experimental: (§1) For Example 1, Example 2, Example 3, Example 4, Example 5, Example 6, Comparative Example 3, Comparative Example 4, Comparative Example 6, Comparative Example 7, Comparative Example 8, Comparative Example 9, Comparative Example 10 and Comparative Example 12, the attrition rate of the test compound and the conversion rate of the test compound to Alvocidib in human plasma and BALB/c mouse plasma were calculated by the following method.
(§2) The test compound was added to human plasma or BALB/c mouse plasma at a concentration of 0.2 μmol/L, and incubated at 37° C. The peak areas of the test compound and Alvocidib in the sample were determined by LC-MS/MS after 0, 30 and 60 minutes for Example 1, Example 2, Example 3, Example 4, Example 5 and Example 6, and after 0, 60 and 120 minutes for Comparative Example 3, Comparative Example 4, Comparative Example 6, Comparative Example 7, Comparative Example 8, Comparative Example 9, Comparative Example 10 and Comparative Example 12, and the attrition rate of the test compound and the conversion rate of the test compound to Alvocidib were calculated by the following formula. Attrition rate of test compound (%):(peak area of test compound in sample/peak area of test compound in sample after 0 minute)×100 Conversion rate to Alvocidib (%):(peak area of Alvocidib in sample/peak area of Alvocidib in reaction solution containing 0.2 μmol/L Alvocidib)×100
(§3) The measurement conditions for LC-MS/MS are as follows. • HPLC: Prominence system (Shimadzu Corporation) • MS/MS: • Example 1, Example 2, Example 3, Example 4, Example 5, Example 6, Comparative Example 8 (mouse), Comparative Example 10 (mouse) and Comparative Example 12 (mouse) • QTRAP5500 (SCIEX) • Comparative Example 6, Comparative Example 7, Comparative Example 8 (human), Comparative Example 9, Comparative Example 10 (human) and Comparative Example 12 (human) • 4000 QTRAP (SCIEX) • column: • other than Example 3 and Example 4 • Cadenza CD-C18, 3 μm, 50×2 mm (Imtakt Corporation) • Example 3 and Example 4 • Kinetex C8, 2.6 μm, 50×2.1 mm (Phenomenex) • column temperature: 40° C. • mobile phase: • A: water containing 0.1% formic acid • B: acetonitrile containing 0.1% formic acid • A/B (min): • Example 1, Example 2, Example 5, Example 6, Comparative Example 8 (mouse), Comparative Example 10 (mouse) and Comparative Example 12 (mouse) • 90/10(0)→40/60(5.0)→10/90(5.1)→10/90(6.5)→90/10(6.6)→90/10(8.0) • Example 3 and Example 4 • 86/14(0)→86/14(3.5)→10/90(5.5)→10/90(6.5)→86/14(6.6)→86/14(9.5) • Comparative Example 6, Comparative Example 7, Comparative Example 8 (human), Comparative Example 9, Comparative Example 10 (human) and Comparative Example 12 (human) • 90/10(0)→10/90(2.5)→10/90(3.5)→90/10(3.6)→90/10(5.0) • flow rate: 0.4 mL/min • detection: ESI (positive mode) • injection: 1 to 5 μL

[3] = Evaluation of conversion rate to active form in human plasma (Experimental Example 3); type: in vitro ADME; settings: human, 0.2 μmol/L
Experimental: as §1, §2, §3

- Production rate of Alvocidib ([1]; pH5.0, 0 hr): 1.2%
- Residual rate ([1]; pH5.0, 0 hr): 90.6%
- Production rate of Alvocidib ([1]; pH5.0, 0.5 hr): 1.2%
- Residual rate ([1]; pH5.0, 0.5 hr): 90.6%
- Production rate of Alvocidib ([1]; pH5.0, 1 hr): 1.2%
- Residual rate ([1]; pH5.0, 1 hr): 90.7%
- Production rate of Alvocidib ([1]; pH5.0, 2 hr): 1.3%
- Residual rate ([1]; pH5.0, 2 hr): 90.2%
- Production rate of Alvocidib ([1]; pH5.0, 3 hr): 1.2%
- Residual rate ([1]; pH5.0, 3 hr): 90.6%
- Production rate of Alvocidib ([1]; pH5.5, 0 hr): 1.1%
- Residual rate ([1]; pH5.5, 0 hr): 90.9%
- Production rate of Alvocidib ([1]; pH5.5, 0.5 hr): 1.1%
- Residual rate ([1]; pH5.5, 0.5 hr): 90.9%
- Production rate of Alvocidib ([1]; pH5.5, 1 hr): 1.2%
- Residual rate ([1]; pH5.5, 1 hr): 90.6%
- Production rate of Alvocidib ([1]; pH5.5, 2 hr): 1.2%
- Residual rate ([1]; pH5.5, 2 hr): 89.9%
- Production rate of Alvocidib ([1]; pH5.5, 3 hr): 1.1%
- Residual rate ([1]; pH5.5, 3 hr): 90.7%
- Production rate of Alvocidib ([1]; pH6.0, 0 hr): 1.1%
- Residual rate ([1]; pH6.0, 0 hr): 91.0%
- Production rate of Alvocidib ([1]; pH6.0, 0.5 hr): 1.2%
- Residual rate ([1]; pH6.0, 0.5 hr): 90.8%
- Production rate of Alvocidib ([1]; pH6.0, 1 hr): 1.1%
- Residual rate ([1]; pH6.0, 1 hr): 90.9%
- Production rate of Alvocidib ([1]; pH6.0, 2 hr): 1.2%
- Residual rate ([1]; pH6.0, 2 hr): 90.0%
- Production rate of Alvocidib ([1]; pH6.0, 3 hr): 1.2%
- Residual rate ([1]; pH6.0, 3 hr): 90.9%
- Production rate of Alvocidib ([1]; pH6.5, 0 hr): 1.1%
- Residual rate ([1]; pH6.5, 0 hr): 90.8%
- Production rate of Alvocidib ([1]; pH6.5, 0.5 hr): 1.1%
- Residual rate ([1]; pH6.5, 0.5 hr): 90.9%
- Production rate of Alvocidib ([1]; pH6.5, 1 hr): 1.2%
- Residual rate ([1]; pH6.5, 1 hr): 90.8%
- Production rate of Alvocidib ([1]; pH6.5, 2 hr): 1.3%
- Residual rate ([1]; pH6.5, 2 hr): 89.9%
- Production rate of Alvocidib ([1]; pH6.5, 3 hr): 1.2%
- Residual rate ([1]; pH6.5, 3 hr): 90.8%
- Production rate of Alvocidib ([1]; pH7.0, 0 hr): 1.1%
- Residual rate ([1]; pH7.0, 0 hr): 91.0%
- Production rate of Alvocidib ([1]; pH7.0, 0.5 hr): 1.2%
- Residual rate ([1]; pH7.0, 0.5 hr): 91.0%
- Production rate of Alvocidib ([1]; pH7.0, 1 hr): 1.2%
- Residual rate ([1]; pH7.0, 1 hr): 90.9%
- Production rate of Alvocidib ([1]; pH7.0, 2 hr): 1.4%
- Residual rate ([1]; pH7.0, 2 hr): 89.8%
- Production rate of Alvocidib ([1]; pH7.0, 3 hr): 1.3%
- Residual rate ([1]; pH7.0, 3 hr): 90.8%
- Production rate of Alvocidib ([1]; pH7.4, 0 hr): 1.1%
- Residual rate ([1]; pH7.4, 0 hr): 91.0%
- Conversion to Alvocidib at pH 7.4 [1]: slowly converted to Alvocidib
- Production rate of Alvocidib ([1]; pH7.4, 0.5 hr): 1.2%
- Residual rate ([1]; pH7.4, 0.5 hr): 91.0%
- Production rate of Alvocidib ([1]; pH7.4, 1 hr): 1.2%
- Residual rate ([1]; pH7.4, 1 hr): 91.0%
- Production rate of Alvocidib ([1]; pH7.4, 2 hr): 1.4%
- Residual rate ([1]; pH7.4, 2 hr): 90.1%
- Production rate of Alvocidib ([1]; pH7.4, 3 hr): 1.3%
- Residual rate ([1]; pH7.4, 3 hr): 90.8%
- Production rate (%) of Alvocidib ([2]; 0 min): 1%
- Residual rate (%) of test compound ([2]; 0 min): 100%
- Production rate (%) of Alvocidib ([2]; 60 min): 7%
- Residual rate (%) of test compound ([2]; 60 min): 90%
- Production rate (%) of Alvocidib ([2]; 120 min): 13%
- Residual rate (%) of test compound ([2]; 120 min): 78%
- Production rate (%) of Alvocidib ([3]; 0 min): 1%
- Residual rate (%) of test compound ([3]; 0 min): 100%
- Production rate (%) of Alvocidib ([3]; 60 min): 1%
- Residual rate (%) of test compound ([3]; 60 min): 78%
- Production rate (%) of Alvocidib ([3]; 120 min): 2%
- Residual rate (%) of test compound ([3]; 120 min): 101%
Structure (SMILES): CCOC(=O)O[C@@H]1CN(C)CC[C@@H]1c1c(O)cc(O)c2c(=O)cc(-c3ccccc3Cl)oc12 [Comparative Example 3, reference compound]

- Production rate of Alvocidib ([1]; pH5.0, 0 hr): 2.0%
- Residual rate ([1]; pH5.0, 0 hr): 93.4%
- Production rate of Alvocidib ([1]; pH5.0, 0.5 hr): 2.3%
- Residual rate ([1]; pH5.0, 0.5 hr): 93.2%
- Production rate of Alvocidib ([1]; pH5.0, 1 hr): 2.7%
- Residual rate ([1]; pH5.0, 1 hr): 92.7%
- Production rate of Alvocidib ([1]; pH5.0, 2 hr): 3.7%
- Residual rate ([1]; pH5.0, 2 hr): 91.4%
- Production rate of Alvocidib ([1]; pH5.0, 3 hr): 4.2%
- Residual rate ([1]; pH5.0, 3 hr): 91.2%
- Production rate of Alvocidib ([1]; pH5.5, 0 hr): 2.0%
- Residual rate ([1]; pH5.5, 0 hr): 93.2%
- Production rate of Alvocidib ([1]; pH5.5, 0.5 hr): 2.7%
- Residual rate ([1]; pH5.5, 0.5 hr): 92.7%
- Production rate of Alvocidib ([1]; pH5.5, 1 hr): 3.7%
- Residual rate ([1]; pH5.5, 1 hr): 91.7%
- Production rate of Alvocidib ([1]; pH5.5, 2 hr): 5.5%
- Residual rate ([1]; pH5.5, 2 hr): 89.9%
- Production rate of Alvocidib ([1]; pH5.5, 3 hr): 6.8%
- Residual rate ([1]; pH5.5, 3 hr): 88.7%
- Production rate of Alvocidib ([1]; pH6.0, 0 hr): 2.1%
- Residual rate ([1]; pH6.0, 0 hr): 93.1%
- Production rate of Alvocidib ([1]; pH6.0, 0.5 hr): 4.4%
- Residual rate ([1]; pH6.0, 0.5 hr): 90.7%
- Production rate of Alvocidib ([1]; pH6.0, 1 hr): 7.2%
- Residual rate ([1]; pH6.0, 1 hr): 88.6%
- Production rate of Alvocidib ([1]; pH6.0, 2 hr): 12.8%
- Residual rate ([1]; pH6.0, 2 hr): 83.1%
- Production rate of Alvocidib ([1]; pH6.0, 3 hr): 16.3%
- Residual rate ([1]; pH6.0, 3 hr): 79.7%
- Production rate of Alvocidib ([1]; pH6.5, 0 hr): 2.3%
- Residual rate ([1]; pH6.5, 0 hr): 93.2%
- Production rate of Alvocidib ([1]; pH6.5, 0.5 hr): 5.1%
- Residual rate ([1]; pH6.5, 0.5 hr): 90.9%
- Production rate of Alvocidib ([1]; pH6.5, 1 hr): 8.8%
- Residual rate ([1]; pH6.5, 1 hr): 87.4%
- Production rate of Alvocidib ([1]; pH6.5, 2 hr): 15.6%
- Residual rate ([1]; pH6.5, 2 hr): 81.1%
- Production rate of Alvocidib ([1]; pH6.5, 3 hr): 20.2%
- Residual rate ([1]; pH6.5, 3 hr): 76.6%
- Production rate of Alvocidib ([1]; pH7.0, 0 hr): 2.1%
- Residual rate ([1]; pH7.0, 0 hr): 93.2%
- Production rate of Alvocidib ([1]; pH7.0, 0.5 hr): 5.2%
- Residual rate ([1]; pH7.0, 0.5 hr): 92.3%
- Production rate of Alvocidib ([1]; pH7.0, 1 hr): 8.5%
- Residual rate ([1]; pH7.0, 1 hr): 88.2%
- Production rate of Alvocidib ([1]; pH7.0, 2 hr): 15.5%
- Residual rate ([1]; pH7.0, 2 hr): 81.5%
- Production rate of Alvocidib ([1]; pH7.0, 3 hr): 19.5%
- Residual rate ([1]; pH7.0, 3 hr): 75.7%
- Production rate of Alvocidib ([1]; pH7.4, 0 hr): 2.1%
- Residual rate ([1]; pH7.4, 0 hr): 93.2%
- Conversion to Alvocidib at pH 7.4 [1]: slowly converted to Alvocidib
- Production rate of Alvocidib ([1]; pH7.4, 0.5 hr): 4.6%
- Residual rate ([1]; pH7.4, 0.5 hr): 92.2%
- Production rate of Alvocidib ([1]; pH7.4, 1 hr): 7.5%
- Residual rate ([1]; pH7.4, 1 hr): 89.3%
- Production rate of Alvocidib ([1]; pH7.4, 2 hr): 13.3%
- Residual rate ([1]; pH7.4, 2 hr): 82.9%
- Production rate of Alvocidib ([1]; pH7.4, 3 hr): 17.1%
- Residual rate ([1]; pH7.4, 3 hr): 78.4%
- Production rate (%) of Alvocidib ([2]; 0 min): 1%
- Residual rate (%) of test compound ([2]; 0 min): 100%
- Production rate (%) of Alvocidib ([2]; 60 min): 5%
- Residual rate (%) of test compound ([2]; 60 min): 84%
- Production rate (%) of Alvocidib ([2]; 120 min): 6%
- Residual rate (%) of test compound ([2]; 120 min): 89%
- Production rate (%) of Alvocidib ([3]; 0 min): 0%
- Residual rate (%) of test compound ([3]; 0 min): 100%
- Production rate (%) of Alvocidib ([3]; 60 min): 2%
- Residual rate (%) of test compound ([3]; 60 min): 104%
- Production rate (%) of Alvocidib ([3]; 120 min): 3%
- Residual rate (%) of test compound ([3]; 120 min): 105%
Structure (SMILES): CC(C)[C@H](N)C(=O)O[C@@H]1CN(C)CC[C@@H]1c1c(O)cc(O)c2c(=O)cc(-c3ccccc3Cl)oc12 [Comparative Example 10, reference compound]
